Key:
[1] = target: T1, human BLT2 (Homo sapiens, UniProt Q9NPC1); assay: LTB4-induced increase in intracellular calcium ion concentration in CHO cells expressing human BLT2 (Fluo-3, Flexstation); assay type: cell-based; settings: compound 10 μM final, LTB4 100 nM final
T1 construct: expressed in transfected cells; host or cells: CHO cells
T1 sequence (Q9NPC1 1-358): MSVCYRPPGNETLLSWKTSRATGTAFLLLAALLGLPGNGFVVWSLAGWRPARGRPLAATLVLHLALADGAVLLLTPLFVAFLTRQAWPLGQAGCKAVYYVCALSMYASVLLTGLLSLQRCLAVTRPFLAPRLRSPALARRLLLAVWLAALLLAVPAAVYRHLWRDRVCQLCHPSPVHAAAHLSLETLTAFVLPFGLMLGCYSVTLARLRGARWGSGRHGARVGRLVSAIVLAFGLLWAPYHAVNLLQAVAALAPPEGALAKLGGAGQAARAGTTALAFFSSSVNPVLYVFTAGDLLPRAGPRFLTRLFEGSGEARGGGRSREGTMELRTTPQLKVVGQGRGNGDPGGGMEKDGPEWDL
Protocol: CHO cells habouring a gene encoding human BLT1 or human BLT2 and functionally expressing the receptor were seeded in a 96 well plate at 4×10^4 cells/well, and cultured at 37° C. for 60 min. The culture supernatant was removed and a loading buffer (100 μl) containing 4 μM Fluo-3 (manufactured by Dojindo), 0.04% pluoronic acid (manufactured by Sigma) and 1% serum was added. The mixture was culture at 37° C. for 30 min to introduce Fluo-3 into the cells. After culture, the cells were washed with a buffer, and a buffer containing various compounds (10 μM (final concentration)) was added, and then 100 nM (final concentration) of LTB4 was added. Changes in the intracellular calcium ion concentration were measured with Flexstation (manufactured by Molecular Devices Corporation) as increase in the fluorescence intensity (area under a curve in a time-course graph of fluorescence intensity in 10 min measurement). As a positive control of BLT1 and BLT2 antagonists, ZK158252 was used.

[2] = system: LTB4 receptor; assay: TXB2 release from guinea pig eosinophils stimulated with LTB4 (LTB4 receptor antagonist activity); assay type: cell-based; settings: 10^−3 M test compound (37.5 μl) added to 300 μl cell suspension, then 10^−7 M LTB4 (37.5 μl), 37° C. 15 min, positive control 100, negative control 0, N.D. = TXB2 concentration at measurement limit or less
Protocol: The LTB4 receptor antagonist activity of the test compound was examined using, as an index, thromboxane B2 (TXB2) released when stimulating eosinophil of guinea pig with LTB4.
Based on the method described in Japanese Journal of Pharmacology, vol. 70, p. 337-345 (1996) etc., eosinophils of guinea pig were prepared. A cell suspension (300 μl, 1.25×10^6 cells/ml) was placed in a 5 ml polypropylene test tube and, after incubation at 37° C. for 5 min., 10^−3 M test compound (37.5 μl) dissolved in 0.1% DMSO aqueous solution was added and the cells were continuously cultured for 5 min. Then, 10^−7 M LTB4 (37.5 μl) was added to induce the reaction and the cells were incubated at 37° C. for 15 min. The reaction was quenched in ice water, and the culture was centrifuged at 4° C., 3000 rpm for 10 min. The obtained supernatant was prepared as a sample for TXB2 measurement, and preserved at −80° C. before use for the measurement. The quantitation of TXB2 was performed using a TXB2 enzyme immunoassay kit (manufactured by Cayman Chemical Company). The release ratio (%) of TXB2 from the eosinophils was determined by the following formula: release ratio (%) of TXB2=[(average value of test compound administration group−average value of negative control group)/(average value of positive control group−average value of negative control group)]×100
As used herein, the positive control group means a group to which stimulation with LTB4 was applied but the same volume of a medium was given instead of the test compound, and the negative control group means a group to which stimulation with LTB4 was not applied, the same volume of a medium was given instead of LTB4, and the same volume of a medium was given instead of the test compound. When the release ratio of TXB2 is smaller than 0, it means that the measured TXB2 concentration was lower than that of the negative control group. When the TXB2 concentration in the sample was the measurement limit or less, N.D. is indicated.

| Compound | melting point [°C] | Suppressive effect on increase in intracellular calcium ion concentration compared with ZK158252 (in words) [1] | Amount of TXB2 release (%) [2] [%] |
| --- | --- | --- | --- |
| CC(=O)c1cc2c(/C(C)=C/C(=O)N3CCOCC3)ccc(OC(c3ccccc3)c3ccccc3)c2o1 [Example 7, (E)-3-(2-acetyl-7-benzhydryloxybenzofuran-4-yl)-1-morpholino-2-buten-1-one] | 167 to 169.3 | – | 9.89 |
| CC(=O)c1cc2c(/C(C)=C/C(=O)N3CCN(c4ccccc4)CC3)ccc(OC(c3ccccc3)c3ccccc3)c2o1 [Example 6, (E)-3-(2-acetyl-7-benzhydryloxybenzofuran-4-yl)-1-(4-phenylpiperazin-1-yl)-2-buten-1-one] | 152 to 160 | – | 38.93 |
| COc1cccc2cc(/C(Cl)=C/C=C/C(=O)N3CCCCC3)oc12 [Example 144, (2E,4Z)-5-chloro-5-(7-methoxybenzofuran-2-yl)-1-piperidin-1-ylpenta-2,4-dien-1-one] | 142.2 to 144.4 | almost of the same level as or not less than that by ZK158252 | – |
| CCN(CC)C(=O)/C=C(\C)c1ccc2oc(C(C)=O)c(NC(=O)/C(C#N)=C(/C)O)c2c1 [Example 94, N-{2-acetyl-5-[(E)-2-diethylcarbamoyl-1-methylvinyl]benzofuran-3-yl}-2-cyano-3-hydroxy-(Z)-2-butenamide] | 169.3 to 171 | – | −0.1 |
| CCOC(=O)CCCOc1cccc2cc(/C(C)=C/C(=O)N(CC)CC)oc12 [Example 224, Ethyl (E)-4-[2-(2-diethylcarbamoyl-1-methylvinyl)benzofuran-7-yloxy]butyrate] | – | almost of the same level as or not less than that by ZK158252 | – |
| CCOC(=O)CCCOc1cccc2cc(/C(C)=C/C(=O)NCC(=O)OCC)oc12 [Example 40, Ethyl (E)-4-{2-[2-(ethoxycarbonylmethylcarbamoyl)-1-methylvinyl]benzofuran-7-yloxy}butyrate] | 96.2 to 98.5 | – | −0.18 |
| CCN(CC)C(=O)/C=C(\C)c1ccc(OC(C)c2ccccc2)c2oc(C(C)=O)cc12 (stereo not drawn) [Example 1, (E)-3-[2-acetyl-7-(1-phenylethoxy)benzofuran-4-yl]-N,N-diethyl-2-butenamide] | 70.8 to 73 | – | 0.42 |
| C/C=C/C(=O)Nc1c(C(=O)OCC)oc2ccccc12 [Example 118, Ethyl (E)-3-methyl-acryloylaminobenzofurane-2-carboxylate] | 143.2 to 145.6 | – | 73.84 |
| CCN(CC)C(=O)/C=C(\C)c1ccc(OCC(=O)c2ccc3c(c2)OCO3)c2oc(C(C)=O)cc12 [Example 13, (E)-3-[2-acetyl-7-(2-benzo[1,3]dioxol-5-yloxoethoxy)benzofuran-4-yl]-N,N-diethyl-2-butenamide] | 142 to 144 | – | 31.8 |
| CC(=O)c1oc2ccc(Br)cc2c1NC(=O)/C=C/c1ccccc1 [Example 114, (E)-N-(2-acetyl-5-bromobenzofuran-3-yl)-3-phenylacrylamide] | 180.2 to 181.1 | – | 51.42 |
| CCOC(=O)c1oc2ccccc2c1NC(=O)/C=C/c1ccccc1 [Example 119, Ethyl (E)-3-(3-phenylacryloylamino)benzofurane-2-carboxylate] | 162.4 to 163.8 | – | 9.8 |

Continued, in another order:

| melting point [°C] | Compound | Suppressive effect on increase in intracellular calcium ion concentration compared with ZK158252 (in words) [1] | Amount of TXB2 release (%) [2] [%] |
| --- | --- | --- | --- |
| 263.3 to 265.3 | C/C(O)=C(\C#N)C(=O)Nc1c(C(=O)c2ccc(Cl)cc2)oc2ccc(Br)cc12 [Example 98, (Z)-N-[5-bromo-2-(4-chlorobenzoyl)benzofuran-3-yl]-2-cyano-3-hydroxy-2-butenamide] | almost of the same level as or not less than that by ZK158252 | – |
| 194 to 195.1 | COc1ccc(NC(=O)/C=C/c2oc3ccc(OC)cc3c2-c2ccc(Cl)cc2)cc1 [Example 141, (E)-3-[3-(4-chlorophenyl)-5-methoxybenzofuran-2-yl]-N-(4-methoxyphenyl)acrylamide] | almost of the same level as or not less than that by ZK158252 | – |
| 194.3 to 197.3 | COc1cccc(NC(=O)/C=C/C=C(\Cl)c2cc3cccc(OC)c3o2)c1 [Example 57, (2E,4Z)-5-chloro-5-(7-methoxybenzofuran-2-yl)penta-2,4-dienoic acid (3-methoxyphenyl)amide] | – | 78.01 |
| 121.8 to 122.3 | CCN(CC)C(=O)/C=C(\C)c1ccc2oc(C(C)=O)c(NC(=O)Cc3ccc(OC)cc3)c2c1 [Example 21, (E)-3-{2-acetyl-3-[2-(4-methoxyphenyl)acetylamino]-benzofuran-5-yl}-N,N-diethyl-2-butenamide] | – | 56.57 |
| 142.7 to 144.3 | COc1ccc2oc(-c3csc(N=CN(C)C)n3)c(-c3ccc(Cl)cc3)c2c1 [Example 219, N′-{4-[3-(4-chlorophenyl)-5-methoxybenzofuran-2-yl]thiazol-2-yl}-N,N-dimethylformamidine] | almost of the same level as or not less than that by ZK158252 | – |
| 168 to 173 | COc1ccc(CCNC(=O)/C=C(\C)c2ccc3oc(C(C)=O)c(N)c3c2)cc1OC [Example 17, (E)-3-(2-acetyl-3-aminobenzofuran-5-yl)-N-[2-(3,4-dimethoxyphenyl)ethyl]-2-butenamide] | – | 27.92 |
| 142 to 144.5 | COc1ccc2c(NC(=O)/C=C/c3ccccc3)c(C(C)=O)oc2c1 [Example 120, (E)-N-(2-acetyl-6-methoxybenzofuran-3-yl)-3-phenylacrylamide] | – | 1.32 |
| 201.5 to 204.4 | CC(=O)c1oc2ccc(/C(C)=C/C(=O)N3CCN(c4ccccc4)CC3)cc2c1NC(=O)c1cnoc1C [Example 75, (E)-N-{2-acetyl-5-[1-methyl-3-oxo-3-(4-phenylpiperazin-1-yl)-1-propenyl]benzofuran-3-yl}-5-methylisoxazole-4-carboxamide] | – | 27.03 |
| 189 to 193 | CCOC(=O)c1ccc(OC)c(NC(=O)/C=C(\C)c2ccc3oc(C(C)=O)c(N)c3c2)c1 [Example 16, Ethyl (E)-3-[3-(2-acetyl-3-aminobenzofuran-5-yl)-2-butenoylamino]-4-methoxybenzoate] | – | 56.57 |
| 161.3 to 162.1 | COc1ccc(CCNC(=O)/C=C/C=C(\Cl)c2cc3cc(Br)ccc3o2)cc1OC [Example 55, (2E,4Z)-5-(5-bromobenzofuran-2-yl)-5-chloropenta-2,4-dienoic acid [2-(3,4-dimethoxyphenyl)ethyl]amide] | – | 53.91 |
| 146.1 to 150 | COc1cccc(NC(=O)/C=C(/C)c2cc3c(S(=O)(=O)NCCc4ccc(OC)c(OC)c4)ccc(OCCCCl)c3o2)c1 [Example 52, (Z)-3-{7-(3-chloropropoxy)-4-[2-(3,4-dimethoxyphenyl)ethylsulfamoyl]benzofuran-2-yl}-N-(3-methoxyphenyl)-2-butenamide] | – | 60.6 |
| 167.2 to 168.2 | COc1cccc(NC(=O)/C=C(\C)c2cc3cccc(OC(c4ccccc4)c4ccccc4)c3o2)c1 [Example 38, (E)-3-(7-benzhydryloxybenzofuran-2-yl)-N-(3-methoxyphenyl)-2-butenamide] | – | 91.73 |

Reference: patent publication US7638540B2, “Benzofuran compound and medicinal composition containing the same” (The New Industry Research Organization, priority 2003, dated 2009)
